Assay results as given in PMC3265452 (PLoS Neglected Tropical Diseases, 2012).
Structures can show the parent of a compound that is named as a salt.

Target: AaDOP2 (Aedes aegypti, UniProt H6D5H2)
Assay: AaDOP2 antagonist screen of the LOPAC1280 library (HEK-CRELuc-Aadop2 cells, luminescence)
Type: cell-based
Settings: not given

AaDOP2, sequence (H6D5H2 1-476): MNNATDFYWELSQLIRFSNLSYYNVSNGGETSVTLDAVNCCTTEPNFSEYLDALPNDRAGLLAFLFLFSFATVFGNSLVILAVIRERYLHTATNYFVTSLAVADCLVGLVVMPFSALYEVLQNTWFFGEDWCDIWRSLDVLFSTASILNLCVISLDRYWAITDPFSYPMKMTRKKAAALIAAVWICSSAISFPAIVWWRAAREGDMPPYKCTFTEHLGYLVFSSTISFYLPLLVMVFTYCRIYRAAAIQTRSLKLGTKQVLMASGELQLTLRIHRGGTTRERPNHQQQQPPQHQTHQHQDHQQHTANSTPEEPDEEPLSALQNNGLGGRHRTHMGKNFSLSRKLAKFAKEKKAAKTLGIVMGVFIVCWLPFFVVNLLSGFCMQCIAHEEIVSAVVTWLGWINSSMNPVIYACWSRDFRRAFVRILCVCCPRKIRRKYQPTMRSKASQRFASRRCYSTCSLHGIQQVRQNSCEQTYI

Row | Compound | Compound effect (percent receptor signaling in presence of test compound, relative lux units relative to the SCH23390 control)
1 | C#C[C@]1(O)CC[C@H]2[C@@H]3CCC4=Cc5oncc5C[C@]4(C)[C@H]3CC[C@@]21C [Compound 421, Danazol] | 83
2 | CCCc1c(-c2ccc(O)cc2)nn(-c2ccc(O)cc2)c1-c1ccc(O)cc1 [Compound 594, 1,3,5-tris(4-hydroxyphenyl)-4-propyl-1H-pyrazole] | 73
3 | C=CCN1C[C@H](C)N([C@H](c2ccc(C(=O)N(CC)CC)cc2)c2cccc(OC)c2)C[C@H]1C [Compound 1090, SNC80] | 94
4 | CC(C)NC[C@H](O)COc1cccc2[nH]ccc12 [Compound 1015, S(-)-Pindolol] | 87
5 | O=C(O)c1cccnc1Nc1cccc(C(F)(F)F)c1 [Compound 837, Niflumic acid] | 90
6 | O=[N+]([O-])c1cc2nc(O)c(O)nc2cc1[N+](=O)[O-] [Compound 355, DNQX] | 100
7 | Br.Oc1ccc(C2CNCc3sccc32)cc1O (centres unmarked) [Compound 1095, SKF 89626] | 89
8 | CC(C)(C)c1ccc(C(O)CCCN2CCC(C(O)(c3ccccc3)c3ccccc3)CC2)cc1 (centres unmarked) [Compound 1218, Terfenadine] | 41
9 | C[C@H](O)C(=O)C1=Nc2c(nc(N)[nH]c2=O)NC1 [Compound 1137, Sepiapterin] | 110
10 | N=C(N)NC(=O)c1nc(Cl)c(N)nc1N [Compound 84, Amiloride hydrochloride] | 110
11 | CNc1ccc2oc(C[C@H]3O[C@@]4(CC[C@H]3C)O[C@H]([C@H](C)C(=O)c3ccc[nH]3)[C@H](C)C[C@H]4C)nc2c1C(=O)O [Compound 296, Calcimycin] | 102
12 | O=C(O)Cc1ccc(O)c(O)c1 [Compound 426, 3,4-Dihydroxyphenylacetic acid] | 120
13 | NNCCc1ccccc1 [Compound 962, Phenelzine sulfate] | 93
14 | CCN(CC)CC#CCOC(=O)C(O)(c1ccccc1)C1CCCCC1 (centres unmarked) [Compound 901, Oxybutynin Chloride] | 83
15 | NCC1(CC(=O)O)CCCCC1 [Compound 571, Gabapentin] | 112
16 | Nc1ccc(CCN2CCN(c3cccc(C(F)(F)F)c3)CC2)cc1 [Compound 1130, PAPP] | 66
17 | Nc1cc(=O)[nH]c(N)n1 [Compound 466, 2,6-Diamino-4-pyrimidinone] | 114
18 | O=C[C@H](Cl)[C@@H](O)[C@H](O)[C@H](O)CO [Compound 346, 2-Chloro-2-deoxy-D-glucose] | 114
19 | NCC(CP(=O)(O)O)c1ccc(Cl)cc1 (centres unmarked) [Compound 1009, Phaclofen] | 71
20 | CC1=C(/C=C/C(C)=C/C=C/C(C)=C\C(=O)O)C(C)(C)CCC1 [Compound 1045, 13-cis-retinoic acid] | 72
21 | C[N+](C)(C)CCCCCCCCCC[N+](C)(C)C.[Br-].[Br-] [Compound 359, Decamethonium dibromide] | 98
22 | COc1ccccc1N1CCN(CCCCNC(=O)c2ccc3ccccc3c2)CC1 [Compound 193, BP 897] | 54

Row | Compound | Compound effect (percent receptor signaling in presence of test compound, relative lux units relative to the SCH23390 control)
23 | O=C(O)[C@H]1C[C@H](C(=O)O)N1 (relative stereo) [Compound 146, trans-Azetidine-2,4-dicarboxylic acid] | 110
24 | CC(C)Cc1ccc([C@H](C)C(=O)O)cc1 [Compound 666, S(+)-Ibuprofen] | 102
25 | COc1ccc2c(c1)c(CC(=O)O)c(C)n2Cc1ccc(F)cc1 [Compound 515, 1-(4-Fluorobenzyl)-5-methoxy-2-methylindole-3-acetic acid] | 103
26 | CN(Cc1cnc2nc(N)nc(N)c2n1)c1ccc(C(=O)N[C@@H](CCC(=O)O)C(=O)O)cc1 [Compound 74, Methotrexate] | 89
27 | CC(C)(C)NCC(O)c1ccccc1Cl (centres unmarked) [Compound 1187, Tulobuterol hydrochloride] | 104
28 | CCC(=O)c1ccc2c(c1)N(CCCN(C)C)c1ccccc1S2 [Compound 972, Propionylpromazine hydrochloride] | 15
29 | O=c1n(CCCN2CCN(c3cccc(Cl)c3)CC2)nc2ccccn12 [Compound 1188, Trazodone hydrochloride] | 97
30 | CN(C(=O)CCCOc1ccc2[nH]c(=O)ccc2c1)C1CCCCC1 [Compound 301, Cilostamide] | 88
31 | S(-)-Timolol maleate [Compound 1191] | 88
32 | COc1ccc(Cc2nccc3cc(OC)c(OC)cc23)cc1OC [Compound 936, Papaverine hydrochloride] | 92
33 | CN(C)CCCC1(c2ccc(F)cc2)OCc2cc(C#N)ccc21 (centres unmarked) [Compound 298, Citalopram hydrobromide] | 90
34 | COc1cccc(NC(=O)/C=C/c2ccc(Cl)cc2)c1 [Compound 1075, SB-366791] | 105
35 | COc1ccc2c(c1)CC[C@@H]1[C@@H]2CC[C@]2(C)[C@@H](NCCCCCCN3C(=O)C=CC3=O)CC[C@@H]12 [Compound 1236, U-73122] | 80
36 | Cl.O=c1cc(N2CCOCC2)oc2c(-c3ccccc3)cccc12 [Compound 719, LY-294,002 hydrochloride] | 53
37 | COc1ccc2c(c1)c(CC(=O)N1CCOCC1)c(C)n2C(=O)c1ccc(Cl)cc1 [Compound 677, Indomethacin morpholinylamide] | 89
38 | CC(C)NC[C@H](O)COc1cccc2[nH]ccc12 [Compound 387, S(-)-Pindolol] | 91
39 | CC(=O)OCC1=C(C(=O)O)N2C(=O)[C@@H](NC(=O)CSc3ccncc3)[C@H]2SC1 [Compound 308, Cephapirin sodium] | 116
40 | CC1=NN=C(c2ccc(N)cc2)c2cc3c(cc2C1)OCO3.Cl [Compound 568, GYKI 52466 hydrochloride] | 90
41 | CN(C)CCOC(=O)COc1ccc(Cl)cc1 [Compound 313, Centrophenoxine hydrochloride] | 99
42 | N#C/C(=C\c1ccc(O)c(O)c1)C(=O)NCCCNC(=O)/C(C#N)=C/c1ccc(O)c(O)c1 [Compound 1179, Tyrphostin AG 537] | 112
43 | Cc1ccc(S(=O)(=O)N[C@@H](CCCCN)C(=O)CCl)cc1.Cl [Compound 1198, Na-p-Tosyl-L-lysine chloromethyl ketone hydrochloride] | 100
44 | Cc1nnc(SCC2=C(C(=O)O)N3C(=O)[C@@H](NC(=O)Cn4cnnn4)[C@H]3SC2)s1 [Compound 268, Cefazolin sodium] | 96

Same assay, conditions: 10 µM compound, 300 nM dopamine, 2 hr; hit = compound effect <20

Row | Compound | Compound effect (percent receptor signaling in presence of test compound, relative lux units relative to the SCH23390 control)
45 | CCCCCCCCCCC/C=C\C(C)(C)/C=C\CCCC(=O)O [Compound 415, 7,7-Dimethyl-(5Z,8Z)-eicosadienoic acid] | 82%
46 | Br.CN=c1nc(-c2ccccc2)n(-c2ccccc2)s1 [Compound 1100, SCH-202676 hydrobromide] | 102%
47 | O=C(O)Cc1c[nH]c2ccc(O)cc12 [Compound 608, 5-Hydroxyindolacetic acid] | 85%
48 | C[C@](N)(Cc1ccc(O)c(O)c1)C(=O)O [Compound 822, L-alpha-Methyl DOPA] | 98%
49 | TFPI hydrochloride [Compound 1197] | 96%
50 | S-Nitroso-N-acetylpenicillamine [Compound 846] | 88%
51 | CCC(NC(C)C)C(O)c1ccc(O)c(O)c1.CS(=O)(=O)O (centres unmarked) [Compound 644, Isotharine mesylate] | 115%
52 | CCCCCCCC/C=C\CCCCCCCC(=O)NCCc1ccc(O)c(O)c1 [Compound 1098, N-Oleoyldopamine] | 122%

Same assay, conditions: read-out: % of the SCH23390 effect (percent inhibition of receptor response relative to the SCH23390 control)

Row | Compound | inhibition at 10 µM
53 | CCC(=O)c1ccc2c(c1)N(CCCN(C)C)c1ccccc1S2 [Compound 972, Propionylpromazine hydrochloride] | 85%
